Test results taken from the Kinase Knowledgebase extract (Sharma et al. 2016).

Target: MAPK14 (human) (UniProt Q16539)
Assay: Inhibition of LPS Stimulated TNF Production by U937 Cells
Conditions: for inhibition: concentration not given here

Sequence of MAPK14 (human) (Q16539 whole entry, looked up): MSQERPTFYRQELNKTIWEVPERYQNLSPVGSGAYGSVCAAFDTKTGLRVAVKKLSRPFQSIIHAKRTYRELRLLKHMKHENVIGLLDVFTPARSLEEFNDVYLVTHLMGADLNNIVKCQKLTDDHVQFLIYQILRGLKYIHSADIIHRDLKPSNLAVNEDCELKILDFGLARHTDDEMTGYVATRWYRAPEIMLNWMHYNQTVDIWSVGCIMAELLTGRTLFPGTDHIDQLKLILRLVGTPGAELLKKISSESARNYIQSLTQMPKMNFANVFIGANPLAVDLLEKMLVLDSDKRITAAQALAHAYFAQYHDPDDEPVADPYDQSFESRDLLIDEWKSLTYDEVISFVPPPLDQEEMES

Row | Compound | inhibition [%] | IC50 [µM]
1 | C[C@H](NC(=O)c1cccc(C(F)(F)F)c1)c1[nH]nc(-c2ccc(F)cc2)c1-c1ccncc1 | 32 | 
2 | C[C@H](NC(=O)N[C@@H](C)c1[nH]nc(-c2ccc(F)cc2)c1-c1ccncc1)c1ccccc1 | 29 | 
3 | COC(=O)CCCCCCC(=O)NCc1[nH]nc(-c2ccc(F)cc2)c1-c1ccncc1 | 9 | 
4 | Cc1ccc(S(=O)(=O)N[C@H](C)c2[nH]nc(-c3ccc(F)cc3)c2-c2ccncc2)cc1 | 39 | 
5 | C[C@@H](NC(=O)c1cccnc1)c1[nH]nc(-c2ccc(F)cc2)c1-c1ccncc1 | 36 | 
6 | O=C(NCc1[nH]nc(-c2ccc(F)cc2)c1-c1ccncc1)c1sc2ccccc2c1Cl | 18 | 
7 | C[C@@H](NS(=O)(=O)c1c(Cl)cccc1Cl)c1[nH]nc(-c2ccc(F)cc2)c1-c1ccncc1 | 75 | 
8 | C[C@@H](NC(=O)N[C@H](C)c1[nH]nc(-c2ccc(F)cc2)c1-c1ccncc1)c1ccccc1 | 28 | 
9 | CC(C)OC(=O)N[C@@H](C)c1[nH]nc(-c2ccc(F)cc2)c1-c1ccncc1 | 53 | 
10 | COc1ccc(Br)cc1S(=O)(=O)N1CCC(c2[nH]nc(-c3ccc(F)cc3)c2-c2ccncc2)CC1 | 36 | 
11 | C[C@@H](NC(=O)c1cc2ccccc2s1)c1[nH]nc(-c2ccc(F)cc2)c1-c1ccncc1 | 16 | 
12 | CCCOC(=O)NCc1[nH]nc(-c2ccc(F)cc2)c1-c1ccncc1 | 65 | 
13 | Cc1ccc(F)cc1S(=O)(=O)N[C@@H](C)c1[nH]nc(-c2ccc(F)cc2)c1-c1ccncc1 | 72 | 
14 | C#CCNc1n[nH]c(-c2ccc(F)cc2)c1-c1ccncc1 |  | 0.3
15 | O=S(=O)(NCCc1[nH]nc(-c2ccc(F)cc2)c1-c1ccncc1)c1cc(Cl)c(Cl)s1 | 28 | 
16 | CCCC(CCC)C(=O)NCc1[nH]nc(-c2ccc(F)cc2)c1-c1ccncc1 | 29 | 
17 | O=C(NCCc1[nH]nc(-c2ccc(F)cc2)c1-c1ccncc1)c1cc(Cl)cc(Cl)c1 |  | > 1
18 | COc1cc(C(=O)NCc2[nH]nc(-c3ccc(F)cc3)c2-c2ccncc2)cc(OC)c1OC | 21 | 
19 | O=C(NCCc1[nH]nc(-c2ccc(F)cc2)c1-c1ccncc1)c1cc(F)cc(F)c1 | 29 | 
20 | O=C(NCc1[nH]nc(-c2ccc(F)cc2)c1-c1ccncc1)c1cnc2ccccc2n1 | 14 | 
21 | CCc1ccc(S(=O)(=O)N[C@H](C)c2[nH]nc(-c3ccc(F)cc3)c2-c2ccncc2)cc1 | 92 | 
22 | Cc1noc(C)c1C(=O)NCc1[nH]nc(-c2ccc(F)cc2)c1-c1ccncc1 | 28 | 
23 | C[C@H](NS(=O)(=O)c1ccc(S(=O)(=O)c2ccccc2)s1)c1[nH]nc(-c2ccc(F)cc2)c1-c1ccncc1 | 72 | 

Row | Compound | inhibition [%] | IC50 [µM]
24 | C[C@H](NC(=O)c1ccc(F)cc1C(F)(F)F)c1[nH]nc(-c2ccc(F)cc2)c1-c1ccncc1 | 58 | 
25 | Cc1cccc(C)c1NC(=O)N[C@H](C)c1[nH]nc(-c2ccc(F)cc2)c1-c1ccncc1 | 50 | 
26 | Cc1ccccc1S(=O)(=O)N[C@H](C)c1[nH]nc(-c2ccc(F)cc2)c1-c1ccncc1 | 92 | 
27 | C[C@@H](NS(=O)(=O)c1ccccc1S(C)(=O)=O)c1[nH]nc(-c2ccc(F)cc2)c1-c1ccncc1 | 80 | 
28 | CC(C)S(=O)(=O)NCc1[nH]nc(-c2ccc(F)cc2)c1-c1ccncc1 |  | 5
29 | COc1ccc(CC(=O)NCc2[nH]nc(-c3ccc(F)cc3)c2-c2ccncc2)cc1 |  | 8.24
30 | Cc1noc(C)c1S(=O)(=O)N[C@@H](C)c1[nH]nc(-c2ccc(F)cc2)c1-c1ccncc1 | 74 | 
31 | O=C(NCc1[nH]nc(-c2ccc(F)cc2)c1-c1ccncc1)N[C@@H]1C[C@@H]1c1ccccc1 | 21 | 
32 | Cn1cc(-c2ccncc2)c(-c2cccc(C(F)(F)F)c2)n1 |  | 0.402
33 | C[C@H](NC(=O)[C@H]1CCCN1)c1[nH]nc(-c2ccc(F)cc2)c1-c1ccncc1 | 20 | 
34 | C[C@H](NC(=O)c1cc(C(F)(F)F)ccc1F)c1[nH]nc(-c2ccc(F)cc2)c1-c1ccncc1 | 32 | 
35 | NC(=O)NCc1[nH]nc(-c2ccc(F)cc2)c1-c1ccncc1 | 50 | 
36 | O=C(NCc1[nH]nc(-c2ccc(F)cc2)c1-c1ccncc1)C1CCCC1 | 13 | 
37 | CCCCOc1ccc(S(=O)(=O)N[C@H](C)c2[nH]nc(-c3ccc(F)cc3)c2-c2ccncc2)cc1 | 67 | 
38 | C[C@H](NS(=O)(=O)c1cccc(C(F)(F)F)c1)c1[nH]nc(-c2ccc(F)cc2)c1-c1ccncc1 | 83 | 
39 | O=S(=O)(NCc1[nH]nc(-c2ccc(F)cc2)c1-c1ccncc1)c1cc(Cl)cc(Cl)c1O | 6 | 
40 | COc1ccc(NC(=O)N[C@@H](C)c2[nH]nc(-c3ccc(F)cc3)c2-c2ccncc2)c(OC)c1 | 21 | 
41 | CC[C@H](C)CNc1cc(-c2c[nH]nc2-c2ccc(Cl)cc2)ccn1 |  | 0.0337
42 | C[C@@H](NS(=O)(=O)c1cn(C)cn1)c1[nH]nc(-c2ccc(F)cc2)c1-c1ccncc1 | 80 | 
43 | Cc1cc(C)c(S(=O)(=O)N[C@@H](C)c2[nH]nc(-c3ccc(F)cc3)c2-c2ccncc2)c(C)c1 | 87 | 
44 | Fc1ccc(-c2[nH]nc(Nc3ccccc3)c2-c2ccncc2)cc1 |  | 1.09
45 | CC(C)S(=O)(=O)N[C@H](C)c1[nH]nc(-c2ccc(F)cc2)c1-c1ccncc1 | 52 | 
46 | O=C(Nc1ccccc1F)N1CCC(c2[nH]nc(-c3ccc(F)cc3)c2-c2ccncc2)CC1 |  | 0.092

Row | Compound | inhibition [%] | IC50 [µM]
47 | O=S(=O)(c1ccc(-c2ccon2)s1)N1CCC(c2[nH]nc(-c3ccc(F)cc3)c2-c2ccncc2)CC1 | 3 | 
48 | C[C@H](NS(=O)(=O)c1cc(S(=O)(=O)c2ccccc2)cs1)c1[nH]nc(-c2ccc(F)cc2)c1-c1ccncc1 | 90 | 
49 | Cn1nc(-c2ccc(F)cc2)c(-c2ccncc2)c1C(O)c1ccccc1 (stereo unspecified) |  | 0.349
50 | C[C@@H](NC(=O)c1c(F)cccc1F)c1[nH]nc(-c2ccc(F)cc2)c1-c1ccncc1 | 83 | 
51 | CN(C)c1cccc2c(S(=O)(=O)NCc3[nH]nc(-c4ccc(F)cc4)c3-c3ccncc3)cccc12 | 2 | 
52 | O=S(=O)(NCc1[nH]nc(-c2ccc(F)cc2)c1-c1ccncc1)c1cccc(C(F)(F)F)c1 | 75 | 
53 | Cn1cc(-c2ccnc(F)c2)c(-c2ccc(F)c(F)c2)n1 |  | 1.28
54 | O=C(NCCCc1[nH]nc(-c2ccc(F)cc2)c1-c1ccncc1)NCc1cccnc1 | 11 | 
55 | Cc1cccc(C)c1NC(=O)N[C@@H](C)c1[nH]nc(-c2ccc(F)cc2)c1-c1ccncc1 | 42 | 
56 | CNC(=O)CC[C@H](NS(=O)(=O)Cc1ccccc1)c1[nH]nc(-c2ccc(F)cc2)c1-c1ccncc1 |  | > 1
57 | C[C@H](NS(=O)(=O)c1ccccc1C(F)(F)F)c1[nH]nc(-c2ccc(F)cc2)c1-c1ccncc1 | 55 | 
58 | C[C@@H](NS(=O)(=O)c1ccccc1)c1[nH]nc(-c2ccc(F)cc2)c1-c1ccncc1 | 54 | 
59 | C[C@@H](NS(=O)(=O)c1ccc(-c2ccon2)s1)c1[nH]nc(-c2ccc(F)cc2)c1-c1ccncc1 | 95 | 
60 | O=C(NCc1[nH]nc(-c2ccc(F)cc2)c1-c1ccncc1)C(c1ccccc1)c1ccccc1 | 78 | 
61 | C[C@@H](NS(=O)(=O)c1cccc(Cl)c1)c1[nH]nc(-c2ccc(F)cc2)c1-c1ccncc1 | 97 | 
62 | O=S(=O)(NCc1[nH]nc(-c2ccc(F)cc2)c1-c1ccncc1)c1cccc(Br)c1 | 90 | 
63 | CC(C)c1ccc(S(=O)(=O)NCc2[nH]nc(-c3ccc(F)cc3)c2-c2ccncc2)cc1 |  | > 1
64 | CCCCOc1ccc(C(=O)NCc2[nH]nc(-c3ccc(F)cc3)c2-c2ccncc2)cc1 | 66 | 
65 | Cn1nc(-c2ccc(F)cc2)c(-c2ccncc2)c1Br |  | 1.4
66 | O=S(=O)(NCc1[nH]nc(-c2ccc(F)cc2)c1-c1ccncc1)c1cccc2ccccc12 |  | > 1
67 | C[C@@H](NC(=O)c1ccccc1I)c1[nH]nc(-c2ccc(F)cc2)c1-c1ccncc1 |  | 0.66
68 | CNC(=O)CC[C@H](NC(=O)c1ccccc1OC)c1[nH]nc(-c2ccc(F)cc2)c1-c1ccncc1 |  | > 1
69 | C[C@H](NS(=O)(=O)c1ccccc1Br)c1[nH]nc(-c2ccc(F)cc2)c1-c1ccncc1 | 81 | 

Row | Compound | inhibition [%] | IC50 [µM]
70 | O=C(NCc1[nH]nc(-c2ccc(F)cc2)c1-c1ccncc1)c1c(F)cccc1C(F)(F)F | 65 | 
71 | O=C(NCc1[nH]nc(-c2ccc(F)cc2)c1-c1ccncc1)c1cc(F)cc(C(F)(F)F)c1 | 26 | 
72 | O=C(NCCc1[nH]nc(-c2ccc(F)cc2)c1-c1ccncc1)c1cccc(C(F)(F)F)c1F |  | > 1
73 | COc1ccccc1C(=O)NCc1[nH]nc(-c2ccc(F)cc2)c1-c1ccncc1 |  | 4.47
74 | CNC(=O)CC[C@H](NC(=O)Nc1ccccc1F)c1[nH]nc(-c2ccc(F)cc2)c1-c1ccncc1 |  | > 1
75 | Cc1ccc(S(=O)(=O)NCc2[nH]nc(-c3ccc(F)cc3)c2-c2ccncc2)cc1 |  | 1.29
76 | C[C@H](NS(=O)(=O)c1c(Cl)cccc1Cl)c1[nH]nc(-c2ccc(F)cc2)c1-c1ccncc1 | 77 | 
77 | CNC(=O)CC[C@H](NC(=O)C1CC1)c1[nH]nc(-c2ccc(F)cc2)c1-c1ccncc1 | 28 | 
78 | C[C@@H](NS(=O)(=O)/C=C/c1ccccc1)c1[nH]nc(-c2ccc(F)cc2)c1-c1ccncc1 | 36 | 
79 | N#Cc1cccc(S(=O)(=O)N2CCC(c3[nH]nc(-c4ccc(F)cc4)c3-c3ccncc3)CC2)c1 | 14 | 
80 | CC(C)NC(=O)NCCc1[nH]nc(-c2ccc(F)cc2)c1-c1ccncc1 | 54 | 
81 | Cc1ccc(S(=O)(=O)N[C@@H](Cc2ccccc2)C(=O)N[C@H](C)c2[nH]nc(-c3ccc(F)cc3)c2-c2ccncc2)cc1 | 10 | 
82 | O=C(NCc1[nH]nc(-c2ccc(F)cc2)c1-c1ccncc1)c1cccs1 |  | > 1
83 | CC(=O)OC(C)(C)C(=O)N[C@H](C)c1[nH]nc(-c2ccc(F)cc2)c1-c1ccncc1 | 17 | 
84 | CCCNC(=O)N[C@H](C)c1[nH]nc(-c2ccc(F)cc2)c1-c1ccncc1 | 55 | 
85 | CNC(=O)N[C@H](Cc1ccccc1)c1[nH]nc(-c2ccc(F)cc2)c1-c1ccncc1 |  | > 1
86 | O=C(N[C@H](Cc1ccccc1)c1[nH]nc(-c2ccc(F)cc2)c1-c1ccncc1)c1ccccn1 | 8 | > 1
87 | CN(C)CCn1cc(-c2ccnc(NCc3ccc(F)cc3)c2)c(-c2ccc(F)cc2)n1 |  | 0.92
88 | COc1ccc(CNc2cc(-c3c[nH]nc3-c3ccc(Cl)cc3)ccn2)cc1 |  | 0.495
89 | Cn1cc(-c2ccncc2)c(-c2ccc3c(c2)OCO3)n1 |  | 0.323
90 | O=C(c1ccccc1Cl)N1CCC(c2[nH]nc(-c3ccc(F)cc3)c2-c2ccncc2)CC1 | 85 | 
